Reference: patent US9113629B2, “4-amino-6-(4-substituted-phenyl)-picolinates and 6-amino-2-(4-substituted-phenyl)-pyrimidine-4-carboxylates and their use as herbicides” (DOW AGROSCIENCES LLC, priority 2013, dated 2015)
Read-outs that look alike come from different tables or passages of the source.

Legend:
[1] = tested on: Key Broadleaf Weed and Crop Species; assay: Post-emergent Test II herbicidal activity (Table 5); format: in vivo; conditions: post-emergence, 336 h, post-emergent, 14 days after application; for pest or weed control at 70 g/ha: application rate 70 g ai/ha; for pest or weed control at 140 g/ha: application rate 140 g ai/ha
In short: (§1)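 Compounds, dissolved in 97:3 acetone/DMSO and diluted into an aqueous carrier containing crop oil concentrate and Triton X-155, are applied over the top of young plants at 187 L/ha. Injury is scored visually at 14 d, 0% meaning no effect and 100% complete kill.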

[2] = tested on: Key Grass and Sedge Weeds as well as Grass Crops; assay: Post-emergent Test II herbicidal activity (Table 6); format: in vivo; conditions: post-emergence, 336 h; for pest or weed control at 70 g/ha: application rate 70 g ai/ha; for pest or weed control at 140 g/ha: application rate 140 g ai/ha
In short: as §1

[3] = ABUTH: velvetleaf (Abutilon theophrasti), read-out: Visual Growth Reduction (%) 14 Days After Application, ABUTH
[4] = AMARE: redroot pigweed (Amaranthus retroflexus), read-out: Visual Growth Reduction (%) 14 Days After Application, AMARE
[5] = BRSNN: oilseed-rape, canola (Brassica napus), read-out: Visual Growth Reduction (%) 14 Days After Application, BRSNN
[6] = CHEAL: lambsquarters (Chenopodium album), read-out: Visual Growth Reduction (%) 14 Days After Application, CHEAL
[7] = EPHHL: wild poinsettia (Euphorbia heterophylla), read-out: Visual Growth Reduction (%) 14 Days After Application, EPHHL
[8] = HELAN: sunflower (Helianthus annuus), read-out: Visual Growth Reduction (%) 14 Days After Application, HELAN
[9] = VIOTR: wild pansy (Viola tricolor), read-out: Visual Growth Reduction (%) 14 Days After Application, VIOTR
[10] = CYPES: yellow nutsedge (Cyperus esculentus), read-out: Visual Growth Reduction (%) 14 Days After Application, CYPES
[11] = DIGSA: crabgrass (Digitaria sanguinalis), read-out: Visual Growth Reduction (%) 14 Days After Application, DIGSA
[12] = ECHCG: barnyardgrass (Echinochloa crus-galli), read-out: Visual Growth Reduction (%) 14 Days After Application, ECHCG
[13] = ORYSA: rice (Oryza sativa), read-out: Visual Growth Reduction (%) 14 Days After Application, ORYSA
[14] = SETFA: giant foxtail (Setaria faberi), read-out: Visual Growth Reduction (%) 14 Days After Application, SETFA
[15] = SORVU: grain sorghum (Sorghum vulgare), read-out: Visual Growth Reduction (%) 14 Days After Application, SORVU
[16] = TRZSS (wheat, Triticum aestivum), read-out: Visual Growth Reduction (%) 14 Days After Application, TRZSS
[17] = ZEAMX: maize, corn (Zea mays), read-out: Visual Growth Reduction (%) 14 Days After Application, ZEAMX

| SMILES | melting point | pest or weed control at 70 g/ha [1, 3] | pest or weed control at 140 g/ha [1, 3] | pest or weed control at 70 g/ha [1, 4] | pest or weed control at 140 g/ha [1, 4] | pest or weed control at 70 g/ha [1, 5] | pest or weed control at 140 g/ha [1, 5] | pest or weed control at 70 g/ha [1, 6] | pest or weed control at 140 g/ha [1, 6] | pest or weed control at 70 g/ha [1, 7] | pest or weed control at 140 g/ha [1, 7] | pest or weed control at 70 g/ha [1, 8] | pest or weed control at 140 g/ha [1, 8] | pest or weed control at 70 g/ha [1, 9] | pest or weed control at 140 g/ha [1, 9] | pest or weed control at 70 g/ha [2, 10] | pest or weed control at 140 g/ha [2, 10] | pest or weed control at 70 g/ha [2, 11] | pest or weed control at 140 g/ha [2, 11] | pest or weed control at 70 g/ha [2, 12] | further results |
| --- | --- | --- | --- | --- | --- | --- | --- | --- | --- | --- | --- | --- | --- | --- | --- | --- | --- | --- | --- | --- | --- |
| Nc1c(F)c(-c2cc(F)c(C(F)F)cc2F)nc(C(=O)O)c1Cl [Compound 178] | 86.1 to 88.4 °C | 75 to 84% | 75 to 84% | 95 to 100% | 95 to 100% | 95 to 100% | 95 to 100% | 95 to 100% | 95 to 100% | 85 to 94% | 95 to 100% | 95 to 100% | 95 to 100% | 30 to 44% | 45 to 59% | 85 to 94% | 85 to 94% | 0 to 29% | 45 to 59% | 60 to 74% | pest or weed control at 140 g/ha [2, 12]: 85 to 94%; pest or weed control at 70 g/ha [2, 13]: 0 to 29%; pest or weed control at 140 g/ha [2, 13]: 0 to 29%; pest or weed control at 70 g/ha [2, 14]: 85 to 94%; pest or weed control at 140 g/ha [2, 14]: 85 to 94%; pest or weed control at 70 g/ha [2, 15]: 45 to 59%; pest or weed control at 140 g/ha [2, 15]: 60 to 74%; pest or weed control at 70 g/ha [2, 16]: 30 to 44%; pest or weed control at 140 g/ha [2, 16]: 45 to 59%; pest or weed control at 70 g/ha [2, 17]: 0 to 29%; pest or weed control at 140 g/ha [2, 17]: 30 to 44% |
| COC(=O)c1nc(-c2cc(F)c(C)cc2F)c(F)c(N)c1Cl [Compound 184] | 116.5 to 118.8 °C | 95 to 100% | 95 to 100% | 85 to 94% | 95 to 100% | 85 to 94% | 95 to 100% | 85 to 94% | 95 to 100% | 85 to 94% | 95 to 100% | 95 to 100% | 95 to 100% | 0 to 29% | 0 to 29% | 0 to 29% | 0 to 29% | 0 to 29% | 0 to 29% | 45 to 59% | pest or weed control at 140 g/ha [2, 12]: 60 to 74%; pest or weed control at 70 g/ha [2, 13]: 0 to 29%; pest or weed control at 140 g/ha [2, 13]: 0 to 29%; pest or weed control at 70 g/ha [2, 14]: 0 to 29%; pest or weed control at 140 g/ha [2, 14]: 0 to 29%; pest or weed control at 70 g/ha [2, 15]: 0 to 29%; pest or weed control at 140 g/ha [2, 15]: 30 to 44%; pest or weed control at 70 g/ha [2, 16]: 0 to 29%; pest or weed control at 140 g/ha [2, 16]: 0 to 29%; pest or weed control at 70 g/ha [2, 17]: 0 to 29%; pest or weed control at 140 g/ha [2, 17]: 0 to 29% |
| COC(=O)c1nc(-c2cc(F)c(C)cc2F)nc(N)c1OC [Compound 185] | 163.4 to 164.8 °C | 30 to 44% | 45 to 59% | 0 to 29% | 0 to 29% | 30 to 44% | 45 to 59% | 60 to 74% | 95 to 100% | 75 to 84% | 85 to 94% | 75 to 84% | 85 to 94% | 0 to 29% | 0 to 29% | 0 to 29% | 0 to 29% | 0 to 29% | 0 to 29% | 0 to 29% | pest or weed control at 140 g/ha [2, 12]: 0 to 29%; pest or weed control at 70 g/ha [2, 13]: 0 to 29%; pest or weed control at 140 g/ha [2, 13]: 0 to 29%; pest or weed control at 70 g/ha [2, 14]: 0 to 29%; pest or weed control at 140 g/ha [2, 14]: 0 to 29%; pest or weed control at 70 g/ha [2, 15]: 0 to 29%; pest or weed control at 140 g/ha [2, 15]: 0 to 29%; pest or weed control at 70 g/ha [2, 16]: 0 to 29%; pest or weed control at 140 g/ha [2, 16]: 0 to 29%; pest or weed control at 70 g/ha [2, 17]: 0 to 29%; pest or weed control at 140 g/ha [2, 17]: 0 to 29% |
